Data: ChEMBL document CHEMBL2321733, “[3a,4]-Dihydropyrazolo[1,5a]pyrimidines: Novel, Potent, and Selective Phosphatidylinositol-3-kinase β Inhibitors” (ACS Med Chem Lett, 2013)
Converted amounts (≈) assume the structure as drawn.

Tests used:
[1] = molecular target: T1, Phosphatidylinositol 4,5-bisphosphate 3-kinase catalytic subunit delta isoform (Homo sapiens, UniProt O00329); assay: Inhibition of PI3Kdelta (unknown origin)
T1 sequence (O00329 whole entry): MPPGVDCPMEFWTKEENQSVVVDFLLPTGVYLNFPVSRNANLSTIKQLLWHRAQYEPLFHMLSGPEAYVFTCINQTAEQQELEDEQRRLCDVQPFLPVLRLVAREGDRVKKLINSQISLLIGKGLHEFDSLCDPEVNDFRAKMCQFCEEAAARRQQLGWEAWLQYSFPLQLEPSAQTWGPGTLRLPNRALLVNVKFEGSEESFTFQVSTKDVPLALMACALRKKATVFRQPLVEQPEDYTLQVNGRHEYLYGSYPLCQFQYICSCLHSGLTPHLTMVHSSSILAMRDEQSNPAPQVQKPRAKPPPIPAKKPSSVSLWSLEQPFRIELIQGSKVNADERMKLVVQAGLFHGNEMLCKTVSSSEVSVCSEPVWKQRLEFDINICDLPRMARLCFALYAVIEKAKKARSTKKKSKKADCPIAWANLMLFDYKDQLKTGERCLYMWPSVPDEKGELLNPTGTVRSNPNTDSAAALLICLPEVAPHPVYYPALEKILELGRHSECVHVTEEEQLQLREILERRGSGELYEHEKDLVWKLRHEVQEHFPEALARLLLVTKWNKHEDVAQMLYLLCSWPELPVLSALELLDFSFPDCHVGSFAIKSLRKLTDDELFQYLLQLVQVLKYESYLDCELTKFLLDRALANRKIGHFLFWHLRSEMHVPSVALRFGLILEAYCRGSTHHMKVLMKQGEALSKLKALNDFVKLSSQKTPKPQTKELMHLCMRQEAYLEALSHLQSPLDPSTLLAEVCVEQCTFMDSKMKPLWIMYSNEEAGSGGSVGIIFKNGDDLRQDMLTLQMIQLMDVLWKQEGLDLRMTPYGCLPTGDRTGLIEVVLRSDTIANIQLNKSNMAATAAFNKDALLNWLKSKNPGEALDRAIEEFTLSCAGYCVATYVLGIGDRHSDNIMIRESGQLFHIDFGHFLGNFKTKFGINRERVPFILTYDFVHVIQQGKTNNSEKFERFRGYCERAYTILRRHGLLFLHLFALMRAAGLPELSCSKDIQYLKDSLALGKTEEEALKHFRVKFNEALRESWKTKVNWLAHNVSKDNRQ

[2] = molecular target: T2, Phosphatidylinositol 4,5-bisphosphate 3-kinase catalytic subunit beta isoform (Homo sapiens, UniProt P42338); assay: Inhibition of PI3Kbeta human in PTEN-null MDA-MB-468 cells assessed as reduction of AKT phosphorylation at Ser 473 in presence of serum; format: cell-based
[3] = molecular target: T2, Phosphatidylinositol 4,5-bisphosphate 3-kinase catalytic subunit beta isoform; assay: Inhibition of PI3Kbeta human in PTEN wild type HCC1954 cells assessed as reduction of AKT phosphorylation at Ser 473; format: cell-based
[4] = molecular target: Phosphatidylinositol 4,5-bisphosphate 3-kinase catalytic subunit gamma isoform (Homo sapiens, UniProt P48736); assay: Inhibition of PI3Kgamma (unknown origin)
[5] = molecular target: Phosphatidylinositol 4,5-bisphosphate 3-kinase catalytic subunit alpha isoform (Homo sapiens, UniProt P42336); assay: Inhibition of PI3Kalpha (unknown origin)
[6] = molecular target: T2, Phosphatidylinositol 4,5-bisphosphate 3-kinase catalytic subunit beta isoform; assay: Inhibition of PI3Kbeta (unknown origin)
[7] = molecular target: T2, Phosphatidylinositol 4,5-bisphosphate 3-kinase catalytic subunit beta isoform; assay: Inhibition of PI3Kbeta human in PTEN-null MDA-MB-468 cells assessed as reduction of AKT phosphorylation at Ser 473 in absence of serum; format: cell-based
[8] = Oral bioavailability mouse; format: ADME, organism-based; conditions: in vivo
[9] = Clearance in rat; format: ADME, organism-based; conditions: in vivo
[10] = tested on: Mus musculus; assay: Dose normalized AUC in po dosed mouse; format: ADME, organism-based; conditions: in vivo
[11] = Permeability of the compound across MDCK cells; format: ADME, cell-based, Canis lupus familiaris; conditions: dog, read-out: permeability
[12] = Clearance in mouse; format: ADME, organism-based; conditions: in vivo
[13] = Plasma protein binding in human serum by equilibrium dialysis; format: ADME, cell-free; conditions: read-out: PPB (converted)
[14] = Aqueous solubility of the compound; format: physicochemical
[15] = Clearance in monkey; format: ADME, organism-based, Macaca mulatta; conditions: rhesus monkey, in vivo
[16] = Plasma protein binding in mouse serum by equilibrium dialysis; format: ADME, cell-free; conditions: read-out: PPB (converted)
[17] = Plasma protein binding in rat serum by equilibrium dialysis; format: ADME, cell-free; conditions: read-out: PPB (converted)

T2 sequence (P42338 whole entry, canonical isoform): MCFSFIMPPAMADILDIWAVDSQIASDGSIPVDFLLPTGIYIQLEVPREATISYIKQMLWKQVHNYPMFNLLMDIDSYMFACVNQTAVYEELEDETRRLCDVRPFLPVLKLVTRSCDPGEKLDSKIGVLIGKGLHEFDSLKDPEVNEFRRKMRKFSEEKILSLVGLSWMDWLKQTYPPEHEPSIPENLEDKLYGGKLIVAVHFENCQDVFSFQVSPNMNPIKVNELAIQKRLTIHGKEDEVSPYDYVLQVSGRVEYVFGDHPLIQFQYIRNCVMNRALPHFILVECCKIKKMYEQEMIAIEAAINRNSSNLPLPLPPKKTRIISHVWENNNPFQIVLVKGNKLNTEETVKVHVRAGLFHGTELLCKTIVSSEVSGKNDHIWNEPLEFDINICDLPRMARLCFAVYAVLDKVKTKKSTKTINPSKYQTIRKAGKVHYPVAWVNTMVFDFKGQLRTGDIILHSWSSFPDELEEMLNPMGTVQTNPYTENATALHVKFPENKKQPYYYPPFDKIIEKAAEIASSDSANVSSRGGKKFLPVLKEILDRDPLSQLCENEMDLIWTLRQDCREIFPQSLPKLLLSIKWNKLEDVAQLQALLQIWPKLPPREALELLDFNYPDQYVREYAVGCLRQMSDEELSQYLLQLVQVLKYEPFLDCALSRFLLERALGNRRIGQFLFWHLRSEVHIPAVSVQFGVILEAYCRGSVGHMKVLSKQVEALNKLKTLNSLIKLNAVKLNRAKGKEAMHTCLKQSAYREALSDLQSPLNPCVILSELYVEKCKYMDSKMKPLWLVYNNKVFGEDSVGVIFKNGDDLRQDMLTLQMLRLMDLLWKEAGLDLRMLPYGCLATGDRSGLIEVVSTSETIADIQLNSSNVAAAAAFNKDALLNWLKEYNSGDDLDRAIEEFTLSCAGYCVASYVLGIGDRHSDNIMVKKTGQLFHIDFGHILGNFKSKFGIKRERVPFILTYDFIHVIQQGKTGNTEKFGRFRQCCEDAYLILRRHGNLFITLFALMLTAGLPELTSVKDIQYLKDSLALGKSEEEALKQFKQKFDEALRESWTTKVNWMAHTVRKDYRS
Phosphatidylinositol 4,5-bisphosphate 3-kinase catalytic subunit alpha isoform, sequence (P42336 whole entry, canonical isoform): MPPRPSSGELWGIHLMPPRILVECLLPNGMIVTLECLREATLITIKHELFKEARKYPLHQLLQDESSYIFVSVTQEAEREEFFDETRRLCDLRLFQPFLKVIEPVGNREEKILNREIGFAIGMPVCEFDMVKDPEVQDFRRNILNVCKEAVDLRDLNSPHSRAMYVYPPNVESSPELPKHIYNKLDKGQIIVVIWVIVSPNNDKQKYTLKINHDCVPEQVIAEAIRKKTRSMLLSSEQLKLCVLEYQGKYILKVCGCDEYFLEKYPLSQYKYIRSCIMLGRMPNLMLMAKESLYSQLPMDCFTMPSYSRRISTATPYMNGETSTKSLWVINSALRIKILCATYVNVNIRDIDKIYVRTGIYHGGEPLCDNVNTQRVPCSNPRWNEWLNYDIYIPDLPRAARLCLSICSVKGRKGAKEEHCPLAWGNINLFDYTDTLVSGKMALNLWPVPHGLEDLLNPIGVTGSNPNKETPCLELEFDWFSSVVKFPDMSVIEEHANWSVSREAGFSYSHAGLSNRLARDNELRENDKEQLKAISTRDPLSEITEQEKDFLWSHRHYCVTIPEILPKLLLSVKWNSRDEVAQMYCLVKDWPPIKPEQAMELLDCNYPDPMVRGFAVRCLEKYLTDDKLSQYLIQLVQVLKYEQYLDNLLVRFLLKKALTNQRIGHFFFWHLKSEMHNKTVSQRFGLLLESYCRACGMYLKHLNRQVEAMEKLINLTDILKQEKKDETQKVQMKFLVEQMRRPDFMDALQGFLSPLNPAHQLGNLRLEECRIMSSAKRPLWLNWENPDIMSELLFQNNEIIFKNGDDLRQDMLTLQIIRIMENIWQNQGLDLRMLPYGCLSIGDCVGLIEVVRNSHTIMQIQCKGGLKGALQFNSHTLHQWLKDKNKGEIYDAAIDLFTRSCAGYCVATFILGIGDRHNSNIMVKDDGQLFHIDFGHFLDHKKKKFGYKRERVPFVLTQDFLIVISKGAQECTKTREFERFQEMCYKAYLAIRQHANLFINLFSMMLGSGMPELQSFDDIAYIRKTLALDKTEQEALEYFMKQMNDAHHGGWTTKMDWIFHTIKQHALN
Phosphatidylinositol 4,5-bisphosphate 3-kinase catalytic subunit gamma isoform, sequence (P48736 whole entry, canonical isoform): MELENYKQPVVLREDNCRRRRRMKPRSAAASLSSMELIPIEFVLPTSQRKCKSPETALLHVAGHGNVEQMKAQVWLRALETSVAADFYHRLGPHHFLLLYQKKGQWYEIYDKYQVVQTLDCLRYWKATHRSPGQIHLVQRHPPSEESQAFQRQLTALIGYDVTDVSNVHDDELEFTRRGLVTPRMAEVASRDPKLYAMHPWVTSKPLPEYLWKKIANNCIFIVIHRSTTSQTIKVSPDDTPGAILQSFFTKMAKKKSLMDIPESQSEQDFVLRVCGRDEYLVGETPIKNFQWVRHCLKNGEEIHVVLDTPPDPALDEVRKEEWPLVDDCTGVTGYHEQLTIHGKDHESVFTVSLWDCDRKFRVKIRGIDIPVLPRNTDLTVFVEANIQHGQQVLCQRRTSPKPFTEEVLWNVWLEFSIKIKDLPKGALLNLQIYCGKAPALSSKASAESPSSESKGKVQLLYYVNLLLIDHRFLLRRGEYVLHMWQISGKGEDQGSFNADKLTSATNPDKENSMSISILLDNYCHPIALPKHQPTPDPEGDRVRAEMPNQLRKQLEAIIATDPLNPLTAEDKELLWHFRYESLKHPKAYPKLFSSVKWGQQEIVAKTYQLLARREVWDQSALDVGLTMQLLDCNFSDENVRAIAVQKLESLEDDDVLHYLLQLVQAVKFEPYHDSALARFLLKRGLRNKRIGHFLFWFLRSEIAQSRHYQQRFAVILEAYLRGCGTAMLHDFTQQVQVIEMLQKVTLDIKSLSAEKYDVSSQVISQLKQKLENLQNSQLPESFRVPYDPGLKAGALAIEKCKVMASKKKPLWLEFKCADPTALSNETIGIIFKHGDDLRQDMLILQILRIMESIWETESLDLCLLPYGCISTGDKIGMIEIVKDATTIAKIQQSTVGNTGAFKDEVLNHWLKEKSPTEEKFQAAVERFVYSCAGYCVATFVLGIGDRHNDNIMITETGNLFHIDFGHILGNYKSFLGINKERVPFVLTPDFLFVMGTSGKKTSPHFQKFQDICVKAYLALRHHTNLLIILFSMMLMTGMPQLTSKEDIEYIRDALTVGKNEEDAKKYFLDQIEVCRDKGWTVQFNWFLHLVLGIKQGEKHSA

Row | SMILES | IC50 [1] [nM] | EC50 [2] [nM] | EC50 [3] [nM] | IC50 [4] [nM] | IC50 [5] [nM] | IC50 [6] [nM] | further results
1 | Oc1cc(N2CCOCC2)nc2c(Cc3cccc(Cl)c3Cl)c(C(F)(F)F)nn12 | 6.31 | 5010 | > 31600 | 251 | 200 | 0.398 | –
2 | Cc1c(Cc2cnn3c(O)cc(-c4ccncc4)nc23)cccc1C(F)(F)F | 100 | 3160 | > 31600 | 316 | 501 | 2.51 | EC50 [7]: 25.1 nM
3 | Cc1nn2c(NCCO)cc(C3CCOCC3)nc2c1Cc1cccc(C(F)(F)F)c1C | > 631 | – | – | 5010 | > 1580 | 1260 | –
4 | COc1nn2c(O)cc(-c3ccncc3)nc2c1Cc1cccc(Cl)c1Cl | 25.1 | 12600 | > 31600 | 501 | 158 | 1.26 | EC50 [7]: 158 nM
5 | Cc1nn2c(O)cc(N3CCOCC3)nc2c1Cc1cccc2ccccc12 | 25.1 | 1000 | > 31600 | 631 | 316 | 1 | –
6 | Nc1nn2c(O)cc(C3CCOCC3)nc2c1Cc1cccc(Cl)c1Cl | 631 | 2000 | > 31600 | > 3980 | 1580 | 7.94 | –
7 | Cc1c(Cc2c(=O)[nH]n3c(=O)cc(C4CCOCC4)[nH]c23)cccc1C(F)(F)F | > 631 | – | – | > 5010 | > 2000 | 63.1 | –
8 | Cc1nn2ccc(C3CCOCC3)nc2c1Cc1cccc(C(F)(F)F)c1C | > 501 | – | – | 2000 | > 1580 | 794 | –
9 | CCc1nn2c(O)cc(C3CCOCC3)nc2c1Cc1cccc(Cl)c1Cl | > 398 | – | – | > 7940 | > 1580 | 12.6 | –
10 | Cc1c(Cn2c(C)nc(=O)c3sc(N4CCOCC4)nc32)cccc1C(F)(F)F | – | 15.8 | – | – | – | 0.631 | fraction unbound [13]: 0.137; EC50 [7]: 6.31 nM; fraction unbound [16]: 0.118; fraction unbound [17]: 0.254
11 | Oc1cc(C2CCOCC2)nc2c(Cc3cccc(Cl)c3Cl)c(C(F)(F)F)nn12 | 100 | – | – | > 6310 | 2510 | 6.31 | –
12 | Oc1cc(-c2ccncc2)nc2c(Cc3cccc(Cl)c3Cl)c(C(F)(F)F)nn12 | 79.4 | – | – | 398 | 631 | 2.51 | –
13 | CCc1nn2c(O)cc(-c3ccncc3)nc2c1Cc1cccc(Cl)c1Cl | 20 | 20000 | > 31600 | 398 | 158 | 0.631 | –

Now from value to molecule, other results behind:

Row | IC50 [1] [nM] | EC50 [2] [nM] | EC50 [3] [nM] | IC50 [4] [nM] | IC50 [5] [nM] | IC50 [6] [nM] | SMILES | further results
14 | > 631 | > 31600 | > 31600 | > 6310 | > 6310 | 25.1 | Cc1nn2c(C(N)=O)cc(N3CCOCC3)nc2c1Cc1cccc(C(F)(F)F)c1C | –
15 | 20 | 1000 | > 31600 | 501 | 316 | 5.01 | Cc1c(Cc2cnn3c(O)cc(N4CCOCC4)nc23)cccc1C(F)(F)F | EC50 [7]: 63.1 nM
16 | > 631 | – | – | > 6310 | > 1580 | > 3160 | CNc1cc(N2CCOCC2)nc2c(Cc3cccc(C(F)(F)F)c3C)c(C)nn12 | –
17 | > 631 | – | – | > 5010 | > 2000 | > 1260 | CC(=O)Nc1cc(N2CCOCC2)nc2c(Cc3cccc(C(F)(F)F)c3C)c(C)nn12 | –
18 | > 631 | > 31600 | > 31600 | > 6310 | > 6310 | 20 | Cc1nn2c(NC(N)=O)cc(N3CCOCC3)nc2c1Cc1cccc(C(F)(F)F)c1C | –
19 | 158 | – | – | 3160 | 251 | 316 | Cc1nn2c(O)cc(N3CCOCC3=O)nc2c1Cc1cccc(C(F)(F)F)c1C | –
20 | 15.8 | – | – | 398 | 200 | 2.51 | Cc1nn2c(O)cc(N3CCOC(C)C3)nc2c1Cc1cccc(C(F)(F)F)c1C (centres undefined) | –
21 | 126 | 10000 | > 31600 | 2510 | > 1580 | 3.98 | Cc1nn2c(O)cc(C3CCOCC3)nc2c1Cc1cccc(C(F)(F)F)c1C | –
22 | > 631 | – | – | > 5010 | > 5010 | 316 | Cc1c(Cc2cnn3c(Cl)cc(N4CCOCC4)nc23)cccc1C(F)(F)F | –
23 | 158 | 1000 | > 31600 | > 1480 | > 2000 | 39.8 | Cc1nn2c(N)cc(N3CCOCC3)nc2c1Cc1cccc(C(F)(F)F)c1C | –
24 | 25.1 | 1580 | > 15800 | 316 | 316 | 0.398 | Cc1nn2c(O)cc(N3CCOCC3)nc2c1Cc1cccc(C(F)(F)F)c1C | bioavailability [8]: 51%; clearance [9]: 6.5 mL/min/kg; AUC/dose [10]: 2321 ng·h/mL/mg/kg; Papp [11]: 75.3 ×10⁻⁶ cm/s; clearance [12]: 3.7 mL/min/kg; fraction unbound [13]: ≤ 0.001; EC50 [7]: 31.6 nM; solubility [14]: 134 µM (≈ 54.5 µg/mL); clearance [15]: 0.33 mL/min/kg; fraction unbound [16]: ≤ 0.001; fraction unbound [17]: ≤ 0.001
25 | 251 | – | – | > 6310 | > 1580 | 39.8 | Cc1nn2c(NO)cc(C3CCOCC3)nc2c1Cc1cccc(C(F)(F)F)c1C | –
26 | > 251 | – | – | > 3160 | > 1000 | > 1260 | Cc1nn2c(C#N)cc(N3CCOCC3)nc2c1Cc1cccc(C(F)(F)F)c1C | –
27 | > 631 | – | – | > 5010 | > 5010 | 1000 | COc1cc(N2CCOCC2)nc2c(Cc3cccc(C(F)(F)F)c3C)cnn12 | –
28 | 39.8 | 1000 | > 31600 | > 6310 | 1580 | 5.01 | Cc1nn2c(C(=O)O)cc(N3CCOCC3)nc2c1Cc1cccc(C(F)(F)F)c1C | –
